Pest or weed control and inhibition in vivo data for 19 molecules are collected here from US10287276B2, “Heteroaryl-1,2,4-triazole and heteroaryl-tetrazole compounds for controlling ectoparasites” (Elanco Tiergesundheit AG, priority 2016, dated 2019).

Some results are limits rather than exact numbers.

For assay [1], the system named is Ctenocephalides Felis (Cat Flea). Put plainly: Activity in vitro against Ctenocephalides felis (cat flea), Assay A. The settings on record: Ctenocephalides felis; at 100 ppm; adult fleas fed on treated blood for 24 h; dead fleas counted; read-out: efficacy (EC80). Here is the method:
Activity In Vitro Against Ctenocephalides Felis (Cat Flea)—Assay A
A mixed adult population of fleas is placed in a suitably formatted 96-well plate allowing fleas to access and feed on treated blood via an artificial feeding system. Fleas are fed on treated blood for 24 h, after which the compound effect is recorded. Insecticidal activity is determined on the basis of the number of dead fleas recovered from the feeding system.

In assay [2] the test system is Lucilla Cuprina (Australian sheep blowfly). Nature of the assay: Activity in vitro against Lucilla cuprina (Australian sheep blowfly), Assay A. The settings on record: Lucilia cuprina, 96 h; at 32 ppm; eggs on agar-based medium, 4 days at 28° C. and 60% relative humidity; read-out: efficacy (EC80). Here is the method: Activity in vitro against Lucilla Cuprina (Australian sheep blowfly)—Assay A
Freshly laid blowfly eggs are used to seed a suitably formatted microplate containing the test substances to be evaluated for antiparasitic activity. Each compound is tested by serial dilution in order to determine its minimum efficacy dose. The test compounds are embedded in an agar-based nutritive medium allowing the full development of the eggs into 3rd instar larvae. The incubation lasts for 4 days at 28° C. and 60% relative humidity. Egg-hatching and ensuing larval development are also recorded to identify a possible growth-regulating activity.

The subject of assay [3] is Rhipicephalus sanguineus (Dog Tick). Put plainly: Activity in vitro against Rhipicephalus sanguineus (dog tick), Assay A, contact test. Particulars: Rhipicephalus sanguineus, 168 h, at 100 ppm, adult ticks, 28° C. and 80% relative humidity for 7 days, read-out: efficacy (EC80). Here is the method:
Activity In Vitro Against Rhipicephalus sanguineus (Dog Tick)—Assay A
A contact test is performed by pre-coating microplate with serial dilution of compound allowing evaluating anti-parasitic activity by contact against ticks. A mixed adult tick population is then distributed to each well of the plate and incubated at 28° C. and 80% relative humidity for 7 days, during which the effect of the test compound is monitored. Acaricidal activity is confirmed if and when adult ticks are dead.

For assay [4], the system named is Engorged Female Rhipicephalus microplus (Cattle Tick). Put plainly: Activity in vitro against engorged female Rhipicephalus microplus (cattle tick), contact test. The settings on record: 672 h, organophosphorous-resistant Ultimo strain, evaluation 28 days later on mortality, oviposition and hatched larvae, read-out: efficacy (EC80). Here is the method: Activity In Vitro Against Engorged Female Rhipicephalus microplus (Cattle Tick)
A contact test is performed by pre-coating 6-well microplates with serial dilution of the compound to be evaluated for anti-parasitic activity. 10 engorged female ticks of the organophosphorous-resistant Ultimo strain are distributed to each well in triplicates. Plates are then incubated at 28° C. and 80% relative humidity. Evaluation takes place 28 days later based on mortality, oviposition and hatched larvae. […] Activity In Vivo Against Rhipicephalus sanguineus Nymphs on Mongolian Gerbils (Meriones unguiculatus) (Spray Application)

A further assay has as its system Lice (Polyplax serrata). Nature of the assay: Activity in vivo against lice (Polyplax serrata) in mice (topical). The settings on record: pour-on application, live lice on day +4 and +14, Henderson & Tilton formula, read-out: efficacy (EC90). Here is the method:
Activity In Vivo Against Lice (Polyplax serrata) in Mice (Topical) Mice naturally infected with P. serrata are treated with the formulated test compound on day 0 by pour-on application. On day +4 and +14, efficacy is evaluated by counting the number of live lice under a binocular. Efficacy at the two time points is expressed as a comparison of lice numbers counted on the same mouse before treatment, using the Henderson & Tilton formula, taking also into account lice numbers found on mice treated with the empty formulation (placebo group): [formula] n=number of lice, T=treated group, Co=control/placebo group.

For the molecule `CC(c1ncnn1-c1ccccn1)N(CC1CC1)C(=O)c1cc(Cl)cc(Cl)c1` (stereo not drawn) [Example 2, 3,5-Dichloro-N-(cyclopropylmethyl)-N-[1-[2-(2-pyridyl)-1,2,4-triazol-3-yl]ethyl]benzamide], the pest or weed control at 100 ppm in assay [1] and in assay [3] was greater than 80% throughout. In addition, the pest or weed control at 32 ppm in assay [2] is greater than 80%. Moreover, the pest or weed control at 200 ppm in assay [4] was greater than 80%.
As to `CCCN(C(=O)c1cc(Cl)cc(Cl)c1)C(C)c1ncnn1-c1ccccn1` (stereo not drawn) [Example 3], the pest or weed control at 100 ppm in assay [1] and in assay [3] was greater than 80% in each case. Besides, the pest or weed control at 32 ppm in assay [2] was greater than 80%. Moreover, the pest or weed control at 200 ppm in assay [4] is greater than 80%.
Consider `CC(c1ncnn1-c1ccccn1)N(CC1CC1)C(=O)c1cccc(OC(F)(F)F)c1` (stereo not drawn) [Example 4, N-(Cyclopropylmethyl)-N-[1-[2-(2-pyridyl)-1,2,4-triazol-3-yl]ethyl]-3-(trifluoromethoxy)benzamide], for which the pest or weed control at 100 ppm in assay [1] and in assay [3] was greater than 80% each time. In addition, in assay [2], the pest or weed control at 32 ppm is greater than 80%. Further, the pest or weed control at 200 ppm in assay [4] was greater than 80%.
Consider `CC(c1ncnn1-c1ccccn1)N(Cc1cccc(Cl)c1)C(=O)c1cccc(C#N)c1` (stereo not drawn) [Example 5, N-[(3-Chlorophenyl)methyl]-3-cyano-N-[1-[2-(2-pyridyl)-1,2,4-triazol-3-yl]ethyl]benzamide], for which the pest or weed control at 100 ppm in assay [1] is greater than 80%.
Regarding `CC(c1ncnn1-c1ccccn1)N(CC1CC1)C(=O)c1cc(Cl)cc(C(F)(F)F)c1` (stereo not drawn) [Example 6, 3-Chloro-N-(cyclopropylmethyl)-N-[1-[2-(2-pyridyl)-1,2,4-triazol-3-yl]ethyl]-5-(trifluoromethyl)benzamide], the pest or weed control at 100 ppm in assay [1] and in assay [3] was greater than 80% throughout. Further, in assay [2], the pest or weed control at 32 ppm is greater than 80%. Moreover, the pest or weed control at 200 ppm in assay [4] was greater than 80%.
On to `C#CCN(C(=O)c1cc(Cl)cc(C(F)(F)F)c1)C(C)c1ncnn1-c1ccccn1` (stereo not drawn) [Example 7, 3-Chloro-N-prop-2-ynyl-N-[1-[2-(2-pyridyl)-1,2,4-triazol-3-yl]ethyl]-5-(trifluoromethyl)benzamide], for which, in assay [1], the pest or weed control at 100 ppm is greater than 80%. In addition, the pest or weed control at 32 ppm in assay [2] was greater than 80%. For the same molecule, the pest or weed control at 200 ppm in assay [4] is greater than 80%. Besides, in the assay with Lice (Polyplax serrata), the inhibition in vivo at 32 mg/kg is greater than 90%.
For the molecule `CC(c1ncnn1-c1ccccn1)N(CC1COC1)C(=O)c1cc(C(F)(F)F)cc(C(F)(F)F)c1` (stereo not drawn) [Example 13, N-(Oxetan-3-ylmethyl)-N-[1-[2-(2-pyridyl)-1,2,4-triazol-3-yl]ethyl]-3,5-bis(trifluoromethyl)benzamide], the pest or weed control at 100 ppm in assay [1] and in assay [3] was greater than 80% each time. For the same molecule, the pest or weed control at 32 ppm in assay [2] was greater than 80%.
For `CC(c1ncnn1-c1ccccn1)N(CC1CC1(Cl)Cl)C(=O)c1cc(C(F)(F)F)cc(C(F)(F)F)c1` (stereo not drawn) [Example 17, N-[(2,2-Dichlorocyclopropyl)methyl]-N-[1-[2-(2-pyridyl)-1,2,4-triazol-3-yl]ethyl]-3,5-bis(trifluoromethyl)benzamide], the pest or weed control at 100 ppm in assay [1] is greater than 80%. Besides, the pest or weed control at 32 ppm in assay [2] is greater than 80%. The pest or weed control at 200 ppm in assay [4] is greater than 80%. Besides, the inhibition in vivo at 32 mg/kg in the assay on Lice (Polyplax serrata) was greater than 90%.
With `CC(c1ncnn1-c1ncccn1)N(CCCF)C(=O)c1cc(C(F)(F)F)cc(C(F)(F)F)c1` (stereo not drawn) [Example 21, N-(3-Fluoropropyl)-N-[1-(2-pyrimidin-2-yl-1,2,4-triazol-3-yl)ethyl]-3,5-bis(trifluoromethyl)benzamide], the pest or weed control at 100 ppm in assay [1] is greater than 80%. In addition, in assay [2], the pest or weed control at 32 ppm was greater than 80%. The pest or weed control at 200 ppm in assay [4] is greater than 80%. For the same molecule, the inhibition in vivo at 32 mg/kg with Lice (Polyplax serrata) is greater than 90%.
For `CC(c1ncnn1-c1ncccn1)N(CCF)C(=O)c1cc(Cl)cc(OC(F)(F)F)c1` (stereo not drawn) [Example 22, 3-Chloro-N-(2-fluoroethyl)-N-[1-(2-pyrimidin-2-yl-1,2,4-triazol-3-yl)ethyl]-5-(trifluoromethoxy)benzamide], in assay [1], the pest or weed control at 100 ppm was greater than 80%. In addition, the pest or weed control at 32 ppm in assay [2] was greater than 80%. Further, the pest or weed control at 200 ppm in assay [4] is greater than 80%.
Regarding `CC(c1ncnn1-c1ncccn1)N(CCC(F)(F)F)C(=O)c1cc(Cl)cc(OC(F)(F)F)c1` (stereo not drawn) [Example 27, 3-Chloro-N-[1-(2-pyrimidin-2-yl-1,2,4-triazol-3-yl)ethyl]-5-(trifluoromethoxy)-N-(3,3,3-trifluoropropyl)benzamide], the pest or weed control at 100 ppm in assay [1] and in assay [3] was greater than 80% throughout. In assay [2], the pest or weed control at 32 ppm is greater than 80%. Besides, the inhibition in vivo at 32 mg/kg in the assay with Lice (Polyplax serrata) was greater than 90%.
With `CC(c1ncnn1-c1ncccn1)N(CCF)C(=O)c1cncc(C(F)(F)F)c1` (stereo not drawn) [Example 30, N-(2-Fluoroethyl)-N-[1-(2-pyrimidin-2-yl-1,2,4-triazol-3-yl)ethyl]-5-(trifluoromethyl)pyridine-3-carboxamide], the pest or weed control at 100 ppm in assay [1] and in assay [3] was greater than 80% in each case. Further, the pest or weed control at 32 ppm in assay [2] is greater than 80%. Further, the inhibition in vivo at 32 mg/kg with Lice (Polyplax serrata) is greater than 90%.
As to `C#CCN(C(=O)c1cncc(C(F)(F)F)c1)C(C)c1ncnn1-c1ncccn1` (stereo not drawn) [Example 32, N-Prop-2-ynyl-N-[1-(2-pyrimidin-2-yl-1,2,4-triazol-3-yl)ethyl]-5-(trifluoromethyl)pyridine-3-carboxamide], the pest or weed control at 100 ppm in assay [1] and in assay [3] was greater than 80% throughout. Besides, the pest or weed control at 32 ppm in assay [2] was greater than 80%.
For the molecule `CC(c1nnnn1-c1ncccn1)N(CC1CC1)C(=O)c1cc(C(F)(F)F)cc(C(F)(F)F)c1` (stereo not drawn) [Example 33, N-(Cyclopropylmethyl)-N-[1-(1-pyrimidin-2-yltetrazol-5-yl)ethyl]-3,5-bis(trifluoromethyl)benzamide], the pest or weed control at 32 ppm in assay [2] is greater than 80%.
Consider `Cc1nc(C(C)N(CC2CC2)C(=O)c2cccc(C#N)c2)n(-c2ccccn2)n1` (stereo not drawn) [Example 34, 3-Cyano-N-(cyclopropylmethyl)-N-[1-[5-methyl-2-(2-pyridyl)-1,2,4-triazol-3-yl]ethyl]benzamide], for which the pest or weed control at 100 ppm in assay [1] and in assay [3] was greater than 80% in each case.
As to `CC(CN(CC1CC1)C(=O)c1cc(C(F)(F)F)cc(C(F)(F)F)c1)c1ncnn1-c1ccccn1` (stereo not drawn) [Example 42, 3-(Cyclopropylmethyl)-N-[2-[2-(2-pyridyl)-1,2,4-triazol-3-yl]propyl]-3,5-bis(trifluoromethyl)benzamide], the pest or weed control at 100 ppm in assay [1] and in assay [3] was greater than 80% each time. The pest or weed control at 32 ppm in assay [2] was greater than 80%.
As to `C#CCN(C(=O)c1cncc(C(F)(F)F)c1)[C@@H](C)c1ncnn1-c1ncccn1` [Example 43, N-Prop-2-ynyl-N-[(1S)-1-(2-pyrimidin-2-yl-1,2,4-triazol-3-yl)ethyl]-5-(trifluoromethyl)pyridine-3-carboxamide], the pest or weed control at 100 ppm in assay [1] and in assay [3] was greater than 80% each time. In assay [2], the pest or weed control at 32 ppm was greater than 80%.
Regarding `C#CCN(C(=O)c1cc(C(F)(F)F)cc(C(F)(F)F)c1)[C@@H](C)c1ncnn1-c1ncccn1` [Example 46, N-Prop-2-ynyl-N-[(1S)-1-(2-pyrimidin-2-yl-1,2,4-triazol-3-yl)ethyl]-3,5-bis(trifluoromethyl)benzamide], the pest or weed control at 100 ppm in assay [1] was greater than 80%. Also, in assay [2], the pest or weed control at 32 ppm was greater than 80%. For the same molecule, in assay [4], the pest or weed control at 200 ppm was greater than 80%.
Regarding `CC(c1ncnn1-c1ccccn1)N(CC1CC1)C(=S)c1cccc(C#N)c1` (stereo not drawn) [Example 47, 3-Cyano-N-(cyclopropylmethyl)-N-[1-[2-(2-pyridyl)-1,2,4-triazol-3-yl]ethyl]benzenecarbothioamide], the pest or weed control at 100 ppm in assay [1] and in assay [3] was greater than 80% each time.
